Data set [1] is classed as physicochemical. The following applies: for related substances (individual maximum values): 40° C. and 75% RH. As for the experimental part: The amounts of degradation products over time under storage were measured by high-performance liquid chromatography. The maximum amount of the individual degradation products is shown. […] Therefore, the main cause of the degradation of the active pharmaceutical ingredient over time was presumably amorphous solifenacin succinate generated in the manufacturing process of the formulation.
Results of the stability of crystalline product and amorphous product of solifenacin succinate • Storage conditions: 40° C. and 75% RH • Packaging form: glass vial • Test items: related substances (individual maximum values)

For a further data set, the target named is muscarine M3 receptors (Homo sapiens, UniProt P20309). The following applies: reported in patent reference 1; cited from earlier work.
muscarine M3 receptors, sequence (P20309 whole entry): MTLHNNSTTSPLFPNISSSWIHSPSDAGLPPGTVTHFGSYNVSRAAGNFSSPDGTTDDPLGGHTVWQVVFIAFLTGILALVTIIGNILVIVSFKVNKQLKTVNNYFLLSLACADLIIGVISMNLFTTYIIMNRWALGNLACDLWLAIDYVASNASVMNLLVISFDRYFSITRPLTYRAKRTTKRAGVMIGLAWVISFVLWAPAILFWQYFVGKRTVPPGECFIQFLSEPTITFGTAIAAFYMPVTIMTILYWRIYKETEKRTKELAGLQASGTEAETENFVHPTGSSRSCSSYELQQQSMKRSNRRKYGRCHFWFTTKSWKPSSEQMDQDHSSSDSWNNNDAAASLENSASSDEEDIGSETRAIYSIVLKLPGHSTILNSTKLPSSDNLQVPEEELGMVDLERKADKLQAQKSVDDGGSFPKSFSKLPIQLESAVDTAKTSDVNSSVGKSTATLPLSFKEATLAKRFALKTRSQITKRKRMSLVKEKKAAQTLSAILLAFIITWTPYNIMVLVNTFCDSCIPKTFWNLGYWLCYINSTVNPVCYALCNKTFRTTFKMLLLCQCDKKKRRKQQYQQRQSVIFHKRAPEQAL

Where two headings read alike, the source gives them in different places.

Turning to `O=C(O[C@H]1CN2CCC1CC2)N1CCc2ccccc2[C@@H]1c1ccccc1` [Amorphous product, solifenacin succinate], in data set [1], the “stability under storage (in words)” value is “poorer than that of the crystalline product”. Besides, the “related substances (individual maximum values)” value in data set [1] (Open glass vial, one-week later) came to 0.16%; in data set [1] (Open glass vial, two-week later) it was 0.16%; in data set [1] (Sealed glass vial, one-week later) it was 0.03%; in data set [1] (Sealed glass vial, two-week later) it was 0.05%.
As to `O=C(O[C@H]1CN2CCC1CC2)N1CCc2ccccc2[C@@H]1c1ccccc1` [solifenacin, (1R,3′R)-3′-quinuclidinyl 1-phenyl-1,2,3,4-tetrahydro-2-isoquinoline carboxylate], the “antagonistic action against muscarine M3 receptors (in words)” value on muscarine M3 receptors is “excellent selective antagonistic action”.
